The results in this text go back to US20050171358A1 (priority 2002, published 2005).

The test system of assay [1] is Colletotrichum lagenarium. Conditions: 200 ppm spray on cucumber (3 leaf stage), inoculated next day; lesion numbers on first and second leaves after 7 days in green house, graded by Table 5.
The test system of assay [2] is Pyricularia oryzae. The class given is in vivo. Conditions: 200 ppm spray on rice (Koshihikari, 3 leaf stage), inoculated next day; lesion numbers on third leaves after 7 days in green house, graded by Table 5.

Take `CC(c1ccccc1)c1cc(CNC(=O)c2ccccc2)on1` (stereo not shown) [IV-29, N-{[3-(1-phenylethyl)-5-isoxazolyl]methyl}benzamide]: in assay [1], the “Evaluation (effect for cucumber anthracnose)” value is 3 (6˜10). Also, the “Evaluation (effect for rice blast)” value in assay [2] is given as 3 (6˜10).
As to `O=C(NCc1cc(CCc2ccccc2)no1)c1ccccc1` [IV-33, N-{[3-(2-phenylethyl)-5-isoxazolyl]methyl}benzamide], in assay [1], the “Evaluation (effect for cucumber anthracnose)” value was 5 (0). In addition, the “Evaluation (effect for rice blast)” value in assay [2] is on record as 5 (0).
As for `COc1ccc(C(=O)NCc2cc(CCc3ccccc3)no2)cc1` [IV-34, N-{[3-(2-phenylethyl)-5-isoxazolyl]methyl}-4-methoxybenzamide], the “Evaluation (effect for cucumber anthracnose)” value in assay [1] was 5 (0). The “Evaluation (effect for rice blast)” value in assay [2] was 5 (0).
In the case of `Cc1ccc(C(=O)NCc2cc(CCc3ccccc3)no2)cc1` [IV-35, N-{[3-(2-phenylethyl)-5-isoxazolyl]methyl}-4-methylbenzamide], the “Evaluation (effect for cucumber anthracnose)” value in assay [1] is listed as 5 (0). Further, the “Evaluation (effect for rice blast)” value in assay [2] is reported as 5 (0).
Regarding `Cc1ccc(C(=O)NCc2cc(CSc3ccccc3)no2)cc1` [IV-40, N-[(3-phenylthiomethyl-5-isoxazolyl)methyl]-4-methylbenzamide], the “Evaluation (effect for cucumber anthracnose)” value in assay [1] is recorded as 2 (11˜20). In addition, in assay [2], the “Evaluation (effect for rice blast)” value was 3 (6˜10).
For `O=C(NCc1cc(COc2ccccc2)no1)c1ccccc1` [IV-44, N-[(3-phenoxymethyl-5-isoxazolyl)methyl]benzamide], in that order: 5 (0) and 5 (0).
For the compound `COc1ccc(C(=O)NCc2cc(COc3ccccc3)no2)cc1` [IV-45, N-[(3-phenyloxymethyl-5-isoxazolyl)methyl]-4-methoxy benzamide], the “Evaluation (effect for cucumber anthracnose)” value in assay [1] is 5 (0). Also, the “Evaluation (effect for rice blast)” value in assay [2] is recorded as 5 (0).
`Cc1ccc(C(=O)NCc2cc(COc3ccccc3)no2)cc1` [IV-46, N-[(3-phenoxymethyl-5-isoxazolyl)methyl]-4-methylbenzamide]: in assay [1], the “Evaluation (effect for cucumber anthracnose)” value is 5 (0). Moreover, the “Evaluation (effect for rice blast)” value in assay [2] is listed as 5 (0).
As to `COc1ccc(C(=O)NCc2cc(COc3ccccc3C)no2)cc1` [IV-47, N-{[3-(2-methylphenyl)oxymethyl-5-isoxazolyl]methyl}-4-methoxy benzamide], in assay [1], the “Evaluation (effect for cucumber anthracnose)” value is reported as 5 (0). The “Evaluation (effect for rice blast)” value in assay [2] is reported as 5 (0).
Turning to `COc1ccc(C(=O)NCc2cc(COc3cccc(C)c3)no2)cc1` [IV-48, N-{[3-(3-methylphenyl)oxymethyl-5-isoxazolyl]methyl}-4-methoxybenzamide], the “Evaluation (effect for cucumber anthracnose)” value in assay [1] is listed as 2 (11˜20). Further, the “Evaluation (effect for rice blast)” value in assay [2] was 3 (6˜10).
As to `Cc1ccc(C(=O)NCc2cc(COc3cccc(C)c3)no2)cc1` [IV-49, N-{[3-(3-methylphenyl)oxymethyl-5-isoxazolyl]methyl}-4-methylbenzamide], in assay [1], the “Evaluation (effect for cucumber anthracnose)” value is listed as 2 (11˜20). In addition, the “Evaluation (effect for rice blast)” value in assay [2] is 2 (11˜20).
Take `COc1ccc(C(=O)NCc2cc(COc3ccc(C)cc3)no2)cc1` [IV-50, N-{[3-(4-methylphenyl)oxymethyl-5-isoxazolyl]methyl}-4-methoxybenzamide]: in assay [1], the “Evaluation (effect for cucumber anthracnose)” value was 4 (1˜5). The “Evaluation (effect for rice blast)” value in assay [2] is on record as 5 (0).
The corresponding values for `COc1ccc(C(=O)NCc2cc(COc3cccc(C#N)c3)no2)cc1` [IV-52, N-{[3-(3-cyanophenyl)oxymethyl-5-isoxazolyl]methyl}-4-methoxybenzamide] are 2 (11˜20) and 3 (6˜10).
Turning to `COc1ccc(C(=O)NCc2cc(COc3ccc(C#N)cc3)no2)cc1` [IV-53, N-([3-(4-cyanophenyl)oxymethyl-5-isoxazolyl]methyl}-4-methoxybenzamide], in assay [1], the “Evaluation (effect for cucumber anthracnose)” value is given as 5 (0). In assay [2], the “Evaluation (effect for rice blast)” value was 5 (0).
With `COc1ccc(C(=O)NCc2cc(COc3ccccc3OC)no2)cc1` [IV-54, N-{[3-(2-methoxyphenyl)oxymethyl-5-isoxazolyl]methyl}-4-methoxybenzamide], in assay [1], the “Evaluation (effect for cucumber anthracnose)” value is listed as 4 (1˜5). Besides, the “Evaluation (effect for rice blast)” value in assay [2] is recorded as 3 (6˜10).
The corresponding values for `COc1ccc(C(=O)NCc2cc(COc3cccc(OC)c3)no2)cc1` [IV-55, N-{[3-(3-methoxyphenyl)oxymethyl-5-isoxazolyl]methyl}-4-methoxybenzamide] are 4 (1˜5) and 4 (1˜5).
For `COc1ccc(OCc2cc(CNC(=O)c3ccc(OC)cc3)on2)cc1` [IV-56, N-{[3-(4-methoxyphenyl)oxymethyl-5-isoxazolyl]methyl}-4-methoxybenzamide], in that order: 2 (11˜20) and 3 (6˜10).
For `COc1ccc(C(=O)NCc2cc(COc3ccccc3F)no2)cc1` [IV-57], in that order: 5 (0) and 5 (0).
As to `COc1ccc(C(=O)NCc2cc(COc3cccc(F)c3)no2)cc1` [IV-58, N-{[3-(3-fluorophenyl)oxymethyl-5-isoxazolyl]methyl}-4-methoxybenzamide], the “Evaluation (effect for cucumber anthracnose)” value in assay [1] was 5 (0). In assay [2], the “Evaluation (effect for rice blast)” value is on record as 5 (0).
Regarding `COc1ccc(C(=O)NCc2cc(COc3ccc(F)cc3)no2)cc1` [IV-59, N-{[3-(4-fluorophenyl)oxymethyl-5-isoxazolyl]methyl}-4-methoxybenzamide], in assay [1], the “Evaluation (effect for cucumber anthracnose)” value is on record as 5 (0). Moreover, the “Evaluation (effect for rice blast)” value in assay [2] is reported as 5 (0).
Regarding `COc1ccc(C(=O)NCc2cc(COc3ccc([N+](=O)[O-])cc3)no2)cc1` [IV-60, N-{[3-(4-nitrophenyl)oxymethyl-5-isoxazolyl]methyl}-4-methoxybenzamide], the “Evaluation (effect for cucumber anthracnose)” value in assay [1] is recorded as 5 (0). Also, the “Evaluation (effect for rice blast)” value in assay [2] was 5 (0).
As for `COc1ccc(C(=O)NCc2cc(COc3ccc(-n4cncn4)cc3)no2)cc1` [IV-73], in assay [1], the “Evaluation (effect for cucumber anthracnose)” value is 3 (6˜10). For the same compound, the “Evaluation (effect for rice blast)” value in assay [2] was 2 (11˜20).
`COc1ccc(C(=O)NCc2cc(CON=Cc3ccccc3)no2)cc1` [IV-74, {3-[(4-methoxyphenyl)carbonylaminomethyl]-5-isoxazolyl]methoxyiminobenzyl]: the “Evaluation (effect for cucumber anthracnose)” value in assay [1] is listed as 3 (6˜10). In addition, in assay [2], the “Evaluation (effect for rice blast)” value is on record as 4 (1˜5).
The corresponding values for `CO/N=C/c1ccc(OCc2cc(CNC(=O)c3ccc(OC)cc3)on2)cc1` [IV-75] are 3 (6˜10) and 2 (11˜20).
For `COc1ccc(C(=O)NCc2cc(COc3c(C)cccc3C)no2)cc1` [IV-80, N-{[3-(2,6-dimethylphenyl)oxymethyl-5-isoxazolyl]methyl}-4-methoxybenzamide], in that order: 4 (1˜5) and 4 (1˜5).
The corresponding values for `COc1ccc(C(=O)NCc2cc(C(=O)Nc3ccccc3)no2)cc1` [IV-84, N-[(3-phenylaminocarbonyl-5-isoxazolyl)methyl]-4-methoxybenzamide] are 5 (0) and 5 (0).
Take `COc1ccc(C(=O)NCc2cc(COc3c(F)cccc3F)no2)cc1` [IV-86, N-{[3-(2,6-difluorophenyl)oxymethyl-5-isoxazolyl]methyl}-4-methoxybenzamide]: the “Evaluation (effect for cucumber anthracnose)” value in assay [1] is 5 (0). Besides, the “Evaluation (effect for rice blast)” value in assay [2] was 5 (0).
As to `COc1ccc(C(=O)NCc2cc(COc3ccc(C(C)=O)cc3)no2)cc1` [IV-87, N-{[3-(4-acetylphenyl)oxymethyl-5-isoxazolyl]methyl}-4-methoxybenzamide], the “Evaluation (effect for cucumber anthracnose)” value in assay [1] is 4 (1˜5). The “Evaluation (effect for rice blast)” value in assay [2] was 5 (0).
The corresponding values for `CNC(=O)c1ccc(OCc2cc(CNC(=O)c3ccc(OC)cc3)on2)cc1` [IV-88, N-{[3-(4-methylaminocarbonylphenyl)oxymethyl-5-isoxazolyl]methyl}-4-methoxybenzamide] are 3 (6˜10) and 3 (6˜10).
Consider `COc1ccc(C(=O)NCc2cc(/C=C/c3ccco3)no2)cc1` [IV-89, N-{[3-(2-(2-furyl)ethenyl)-5-isoxazolyl]methyl}-4-methoxybenzamide], for which the “Evaluation (effect for cucumber anthracnose)” value in assay [1] is listed as 5 (0). For the same compound, in assay [2], the “Evaluation (effect for rice blast)” value is recorded as 5 (0).
For the compound `COc1ccc(C(=O)NCc2cc(COc3ccncc3)no2)cc1` [IV-90, N-{[3-(4-pyridyl)oxymethyl-5-isoxazolyl]methyl}-4-methoxybenzamide], the “Evaluation (effect for cucumber anthracnose)” value in assay [1] was 3 (6˜10). For the same compound, the “Evaluation (effect for rice blast)” value in assay [2] is 3 (6˜10).
With `COc1ccc(C(=O)NCc2cc(COc3ccccn3)no2)cc1` [IV-92, N-{[3-(2-pyridyl)oxymethyl-5-isoxazolyl]methyl}-4-methoxybenzamide], the “Evaluation (effect for cucumber anthracnose)” value in assay [1] was 3 (6˜10). Further, the “Evaluation (effect for rice blast)” value in assay [2] is recorded as 4 (1˜5).
For `COc1ccc(C(=O)NCc2cc(C(=O)Nc3ccc(OC(F)F)cc3)no2)cc1` [IV-93, N-{[3-(4-difluoromethyloxyphenyl)aminocarbonyl-5-isoxazolyl]methyl}-4-methoxybenzamide], in that order: 3 (6˜10) and 4 (1˜5).
In the case of `COc1ccc(NC(=O)c2cc(CNC(=O)c3ccc(OC)cc3)on2)cc1` [IV-94, N-{[3-(4-methoxyphenyl)aminocarbonyl-5-isoxazolyl]methyl}-4-methoxybenzamide], the “Evaluation (effect for cucumber anthracnose)” value in assay [1] is recorded as 3 (6˜10). In addition, in assay [2], the “Evaluation (effect for rice blast)” value is 2 (11˜20).
In the case of `COc1ccc(C(=O)NCc2cc(C(=O)Nc3ccc(F)cc3)no2)cc1` [IV-95, N-{[3-(4-fluorophenyl)aminocarbonyl-5-isoxazolyl]methyl}-4-methoxybenzamide], the “Evaluation (effect for cucumber anthracnose)” value in assay [1] is given as 4 (1˜5). The “Evaluation (effect for rice blast)” value in assay [2] is listed as 4 (1˜5).
